These results are taken from patent US10294237B2, “Bicyclic heterocyclic amide derivative” (Sumitomo Dainippon Pharma Co., Ltd., priority 2015, dated 2019).

In experiment [1] the test system is HCT-116 cells. Kind of experiment: Test for inhibiting sphere-forming ability of cancer cells. It counts as cell-based. The settings on record: HCT-116 spheres, non-adherent, serum-free, 4 days, CellTiter-Glo, read-out: IC50 (Sphere IC50 value; concentration for 50% inhibition of cell proliferation). On the procedure:
(§1) The reliable methods established for measuring the self-renewal ability of cells which is one of the CSC's properties include a method for measuring the sphere-forming ability of cancer cells in non-adherent condition in the absence of serum (Cancer Res 65, 5506-5511 (2005)). HCT-116 cells were available from the American Type Culture Collection (ATCC). HCT-116 cells were cultured at 37° C. and 5% CO2 using the McCoy's 5a medium containing 10% fetal bovine serum (FBS) and 1% penicillin/streptomycin. HCT-116 cells were seeded in a 384 Well Black Clear Bottom Ultra-Low Attachment Microplate (Corning Cat. No. 3827) in an amount of 350-800 cells/well using the DMEM/F12 medium containing 2% B27 supplement (GIBCO), 20 ng/mL epidermal growth factor (EGF) (peprotech), 10 ng/mL basic fibroblast growth factor (bFGF) (peprotech), 5 μg/mL insulin (Sigma), and 1% penicillin/streptomycin. The test compounds were added into each well to adjust the final concentration of DMSO to 0.1%, and the cells were cultured for 4 days. The number of viable cells in each well was then measured with CellTiter-Glo® Luminescent Cell Viability Assay (Promega) to calculate the concentration of each test compound for 50% inhibition of cell proliferation (Sphere IC50 value; μmol/L).
The experiment of Test Example 1 was performed for the compounds of each Example. The concentrations of each test compound for 50% inhibition of cell profeliration (Sphere IC50 value; μmol/L) are shown in the following Table.
In general terms: ATP-based viability assays read luminescence as a measure of living cells.

For experiment [2], the system named is HCT-116 cells. Kind of experiment: Test for inhibiting sphere-forming ability of cancer cells (in the presence of BSA). It counts as cell-based. The settings on record: HCT-116 spheres, non-adherent, 5% BSA, 4 days, CellTiter-Glo, read-out: IC50 (Sphere IC50 value; concentration for 50% inhibition of cell proliferation). On the procedure: as §1, with “HCT-116” for “The reliable methods established for measuring the self-renewal ability of cells which is one of the CSC's properties include a method for measuring the sphere-forming ability of cancer cells in non-adherent condition in the absence of serum (Cancer Res 65, 5506-5511 (2005)). HCT-116”, “(Sigma), 5% bovine serum albumin (BSA),” for “(Sigma),”
The experiment of Test Example 2 was performed for the compounds of each Example. The concentrations of each test compound for 50% inhibition of cell profeliration (Sphere IC50 value; μmol/L) are shown in the following Table.

The structures appear in SMILES notation.

Turning to `O=C(Nc1cn(Cc2ccc3c(c2)OCO3)cn1)c1cnc2c(c1)CCNC2` [Example 119], the IC50 with HCT-116 cells [1] amounted to 730 nM; in the experiment with HCT-116 cells [2], 630 nM.

As for `O=C(Nc1cn(Cc2cc(Cl)cc(OC(F)(F)F)c2)cn1)c1cnc2c(c1)CCNC2` [Example 70, N-{1-[3-chloro-5-(trifluoromethoxy)benzyl]-1H-imidazol-4-yl}-5,6,7,8-tetrahydro-1,7-naphthyridine-3-carboxamide], the half-maximal inhibitory concentration (IC50) in the experiment with HCT-116 cells [1] (Homo sapiens, 96 h) worked out at 40 nM; in the experiment with HCT-116 cells [2] (Homo sapiens, HCT-116, 96 h), 60 nM.

Take `O=C(Nc1cn(Cc2ccc(F)c(C(F)(F)F)c2)cn1)c1cnc2c(c1)CCNC2` [Example 53, N-{1-[4-fluoro-3-(trifluoromethyl)benzyl]-1H-imidazol-4-yl}-5,6,7,8-tetrahydro-1,7-naphthyridine-3-carboxamide]: the IC50 was 60 nM in the experiment with HCT-116 cells [1] (Homo sapiens, 96 h) and 60 nM in the experiment on HCT-116 cells [2] (Homo sapiens, HCT-116, 96 h).

In the case of `O=C(Nc1cc2c(cc1F)CNCC2)c1cn(Cc2ccc(F)c(F)c2)cn1` [Example 2], the half-maximal inhibitory concentration (IC50) in the experiment with HCT-116 cells [1] (Homo sapiens, 96 h) was 660 nM; with HCT-116 cells [2] (Homo sapiens, HCT-116, 96 h), 490 nM.

`N#Cc1cccc(Cn2cnc(NC(=O)c3ccc4c(c3)CCNC4)c2)c1` [Example 88]: the IC50 in the experiment with HCT-116 cells [1] came to 5030 nM; in the experiment on HCT-116 cells [2], 950 nM.

On to `O=C(Nc1cn(Cc2cc(F)cc(Cl)c2)cn1)c1ccc2c(c1)CCNC2` [Example 91, N-[1-(3-chloro-5-fluorobenzyl)-1H-imidazol-4-yl]-1,2,3,4-tetrahydroisoquinoline-6-carboxamide], for which the IC50 amounted to 70 nM in the experiment on HCT-116 cells [1] (Homo sapiens, 96 h) and 80 nM in the experiment on HCT-116 cells [2] (Homo sapiens, HCT-116, 96 h).

Regarding `COc1cccc(Cn2cnc(NC(=O)c3cnc4c(c3)CCNC4)c2)c1` [Example 58], the half-inhibitory concentration (IC50) with HCT-116 cells [1] worked out at 180 nM; with HCT-116 cells [2] it was 80 nM.

Turning to `O=C(Nc1cn(Cc2ccccc2)cn1)c1ccc2c(c1)CCNC2` [Example 71], the figures for the IC50 with HCT-116 cells [1] and in the experiment on HCT-116 cells [2] were 920 nM and 770 nM, respectively.

On to `O=C(Nc1cn(Cc2ccc(OC(F)(F)F)cc2)cn1)c1ccc2c(c1)CCNC2` [Example 75], for which the IC50 in the experiment on HCT-116 cells [1] turned out to be 400 nM; in the experiment on HCT-116 cells [2], 610 nM.

Take `Cc1ccc(Cn2cnc(NC(=O)c3cnc4c(c3)CCNC4)c2)cc1` [Example 68]: the IC50 in the experiment on HCT-116 cells [1] was 560 nM; with HCT-116 cells [2] it was 650 nM.

On to `O=C(Nc1cn(Cc2cc(F)c(F)c(F)c2)cn1)c1cc2c(cc1F)CNCC2` [Example 7], for which the IC50 in the experiment on HCT-116 cells [1] (Homo sapiens, 96 h) stood at 390 nM; with HCT-116 cells [2] (Homo sapiens, HCT-116, 96 h) it was 610 nM.

Take `O=C(Nc1cn(Cc2ccc(Cl)c(C(F)(F)F)c2)cn1)c1ccc2c(c1)CCNC2` [Example 93, N-{1-[4-chloro-3-(trifluoromethyl)benzyl]-1H-imidazol-4-yl}-1,2,3,4-tetrahydroisoquinoline-6-carboxamide]: the half-inhibitory concentration (IC50) with HCT-116 cells [1] (Homo sapiens, 96 h) is < 10 nM; with HCT-116 cells [2] (Homo sapiens, HCT-116, 96 h), 70 nM.

In the case of `O=C(Nc1cn(Cc2cccc(C(F)(F)F)c2)cn1)c1ccc2c(c1)CNCC2` [Example 18], the IC50 in the experiment with HCT-116 cells [1] (Homo sapiens, 96 h) was 670 nM; with HCT-116 cells [2] (Homo sapiens, HCT-116, 96 h), 700 nM.

As to `O=C(Nc1cn(CC2CCCCC2)cn1)c1cnc2c(c1)CCNC2` [Example 55], the IC50 in the experiment on HCT-116 cells [1] worked out at 80 nM; with HCT-116 cells [2] it was 50 nM.

Take `O=C(Nc1cn(Cc2cc(F)cc(C(F)(F)F)c2)cn1)c1ccc2c(c1)CCNC2` [Example 99, N-{1-[3-fluoro-5-(trifluoromethyl)benzyl]-1H-imidazol-4-yl}-1,2,3,4-tetrahydroisoquinoline-6-carboxamide]: the half-inhibitory concentration (IC50) in the experiment on HCT-116 cells [1] (Homo sapiens, 96 h) stood at 60 nM; in the experiment with HCT-116 cells [2] (Homo sapiens, HCT-116, 96 h), 60 nM.

In the case of `CN(C)c1cccc(Cn2cnc(NC(=O)c3ccc4c(c3)CCNC4)c2)c1` [Example 105], the 50% inhibitory concentration (IC50) in the experiment with HCT-116 cells [1] (Homo sapiens, 96 h) is 5900 nM; in the experiment on HCT-116 cells [2] (Homo sapiens, HCT-116, 96 h), 5120 nM.

Take `Cc1ccccc1Cn1cnc(NC(=O)c2cnc3c(c2)CCNC3)c1` [Example 60]: the IC50 amounted to 250 nM in the experiment with HCT-116 cells [1] and 100 nM with HCT-116 cells [2].

In the case of `O=C(Nc1cn(Cc2cccc(C(F)(F)F)c2)cn1)c1cc2c(s1)CCNC2` [Example 16], the IC50 in the experiment on HCT-116 cells [1] (Homo sapiens, 96 h) is 5850 nM; in the experiment on HCT-116 cells [2] (Homo sapiens, HCT-116, 96 h), 6000 nM.

Consider `O=C(Nc1cn(Cc2ccc(F)c(F)c2)cn1)c1cnc2c(c1)CCNC2` [Example 48, N-[1-(3,4-difluorobenzyl)-1H-imidazol-4-yl]-5,6,7,8-tetrahydro-1,7-naphthyridine-3-carboxamide], for which the 50% inhibitory concentration (IC50) in the experiment with HCT-116 cells [1] (Homo sapiens, 96 h) was found to be 80 nM; in the experiment on HCT-116 cells [2] (Homo sapiens, HCT-116, 96 h) it was 60 nM.

Consider `O=C(Nc1cn(CCC2CCCCC2)cn1)c1cnc2c(c1)CCNC2` [Example 56], for which the IC50 in the experiment with HCT-116 cells [1] was determined as 70 nM; with HCT-116 cells [2] it was 160 nM.

`O=C(Nc1cn(Cc2ccc(Cl)cc2)cn1)c1ccc2c(c1)CCNC2` [Example 87]: the IC50 in the experiment with HCT-116 cells [1] was found to be 600 nM; in the experiment on HCT-116 cells [2] it was 580 nM.

With `O=C(Nc1cn(Cc2cccc(Oc3ccccc3)c2)cn1)c1cnc2c(c1)CCNC2` [Example 50, N-[1-(3-phenoxybenzyl)-1H-imidazol-4-yl]-5,6,7,8-tetrahydro-1,7-naphthyridine-3-carboxamide], the IC50 in the experiment on HCT-116 cells [1] (Homo sapiens, 96 h) is 50 nM; in the experiment on HCT-116 cells [2] (Homo sapiens, HCT-116, 96 h) it was 660 nM.

For `O=C(Nc1cn(Cc2ccccc2)cn1)c1cnc2c(c1)CCNC2` [Example 59], the IC50 with HCT-116 cells [1] was found to be 610 nM; in the experiment on HCT-116 cells [2] it was 370 nM.

With `O=C(/C=C/c1ccc2c(c1)CCO2)Nc1cn(Cc2cccc(Cl)c2)cn1` [Example 41], the half-maximal inhibitory concentration (IC50) with HCT-116 cells [1] (Homo sapiens, 96 h) was 10 nM; in the experiment on HCT-116 cells [2] (Homo sapiens, HCT-116, 96 h), 20 nM.

For `O=C(Nc1cn(Cc2cccc(F)c2)cn1)c1cnc2c(c1)CCNC2` [Example 120], the IC50 turned out to be 80 nM in the experiment on HCT-116 cells [1] and 70 nM with HCT-116 cells [2].

For `O=C(Nc1cn(CCCOc2ccccc2)cn1)c1cnc2c(c1)CCNC2` [Example 117], the results for the IC50 with HCT-116 cells [1] and in the experiment with HCT-116 cells [2] were 6810 nM and 5680 nM, respectively.

As for `O=C(Nc1cn(Cc2cccc(C(F)(F)F)c2)cn1)c1ccc2c(c1F)CCNC2` [Example 15], the IC50 came out at 360 nM with HCT-116 cells [1] (Homo sapiens, 96 h) and 550 nM in the experiment with HCT-116 cells [2] (Homo sapiens, HCT-116, 96 h).

`O=C(Nc1cn(Cc2ccc(Cl)c(C(F)(F)F)c2)cn1)c1cnc2c(c1)CCNC2` [Example 54, N-{1-[4-chloro-3-(trifluoromethyl)benzyl]-1H-imidazol-4-yl}-5,6,7,8-tetrahydro-1,7-naphthyridine-3-carboxamide]: the IC50 was < 10 nM with HCT-116 cells [1] (Homo sapiens, 96 h) and 30 nM in the experiment on HCT-116 cells [2] (Homo sapiens, HCT-116, 96 h).

`O=C(Nc1cn(Cc2ccccc2C(F)(F)F)cn1)c1ccc2c(c1)CCNC2` [Example 82]: the results for the IC50 in the experiment on HCT-116 cells [1] and with HCT-116 cells [2] were 3790 nM and 4900 nM, respectively.

In the case of `O=C(Nc1cn(Cc2cccc(Oc3ccccc3)c2)cn1)c1ccc2c(c1)CCNC2` [Example 89, N-[1-(3-phenoxybenzyl)-1H-imidazol-4-yl]-1,2,3,4-tetrahydroisoquinoline-6-carboxamide], the IC50 came out at 70 nM in the experiment with HCT-116 cells [1] (Homo sapiens, 96 h) and 640 nM in the experiment with HCT-116 cells [2] (Homo sapiens, HCT-116, 96 h).

As to `COc1cccc(Cn2cnc(NC(=O)c3ccc4c(c3)CCNC4)c2)c1` [Example 78], the half-maximal inhibitory concentration (IC50) with HCT-116 cells [1] and in the experiment with HCT-116 cells [2] was 560 nM in each case.

With `O=C1CCc2cc(C(=O)Nc3cn(Cc4cccc(C(F)(F)F)c4)cn3)ccc2C1` [Example 110, 6-Oxo-N-{1-[3-(trifluoromethyl)benzyl]-1H-imidazol-4-yl}-5,6,7,8-tetrahydronaphthalene-2-carboxamide], the IC50 in the experiment with HCT-116 cells [1] (Homo sapiens, 96 h) worked out at 680 nM; in the experiment with HCT-116 cells [2] (Homo sapiens, HCT-116, 96 h), 580 nM.

Take `O=C(Nc1cn(Cc2ccc(Cl)c(Cl)c2)cn1)c1ccc2c(c1)CCNC2` [Example 102, N-[1-(3,4-dichlorobenzyl)-1H-imidazol-4-yl]-1,2,3,4-tetrahydroisoquinoline-6-carboxamide]: the concentration for half-maximal inhibition (IC50) amounted to 60 nM in the experiment with HCT-116 cells [1] (Homo sapiens, 96 h) and 60 nM in the experiment on HCT-116 cells [2] (Homo sapiens, HCT-116, 96 h).

Regarding `O=C(Nc1cn(Cc2cc(Cl)cc(OC(F)(F)F)c2)cn1)c1ccc2c(c1)CCNC2` [Example 100, N-{1-[3-chloro-5-(trifluoromethoxy)benzyl]-1H-imidazol-4-yl}-1,2,3,4-tetrahydroisoquinoline-6-carboxamide], the IC50 in the experiment on HCT-116 cells [1] (Homo sapiens, 96 h) came out at 60 nM; in the experiment with HCT-116 cells [2] (Homo sapiens, HCT-116, 96 h), 70 nM.

As to `O=C(Nc1cn(Cc2cccc(C(F)(F)F)c2)cn1)c1cc2c(cn1)CNCC2` [Example 9, N-{1-[3-(trifluoromethyl)benzyl]-1H-imidazol-4-yl}-5,6,7,8-tetrahydro-2,7-naphthyridine-3-carboxamide], the 50% inhibitory concentration (IC50) was 70 nM with HCT-116 cells [1] (Homo sapiens, 96 h) and 500 nM in the experiment with HCT-116 cells [2] (Homo sapiens, HCT-116, 96 h).

As usually defined, the IC50 is the concentration that inhibits the measured activity by half.
